What was measured:
Format in all cases: in vivo
Settings in all cases: sprayed after 8 days, evaluated after 13 days
[1] = tested on: Digitaria sanguinalis (DIGSA); assay: Glasshouse post-emergence phytotoxicity test, Digitaria sanguinalis (DIGSA)
Description: (§1) Seeds of Amaranthus retroflexus (AMARE), Echinochloa crus-galli (ECHCG), Digitaria sanguinalis (DIGSA), Lolium perenne (LOLPE), Alopecurus myosuroides (ALOMY), Chenopodium album (CHEAL), and Ipomoea hederacea (IPOHE) were sown in standard sterilised soil in pots. After cultivation for 8 days under controlled conditions in a glasshouse (at 24/16° C., day/night; 14 hours light; 65% humidity), the plants were sprayed at 500 l/Ha with an aqueous spray solution derived from the formulation of the technical active ingredients in a small amount of acetone and a solvent and emulsifier mixture referred to as IF50 (11.12% Emulsogen EL360 TM+44.44% N-methylpyrrolidone+44.44% Dowanol DPM glycol ether), to create a 50 g/l solution which was then diluted using 0.2% Genapol XO80 (CAS Number: 9043-30-5) as diluent to give the desired final dose of test compound. Where active ingredients were applied as mixtures, aqueous spray solutions were prepared as above, containing both active ingredients. The test plants were then grown under controlled conditions in a glasshouse (at 24/16° C., day/night; 14 hours light; 65% humidity) and watered twice daily. After 13 days, the test was evaluated visually for percentage phytotoxicity to the plants (where 100=total damage to plant; 0=no damage to plant) when compared to control untreated plants. Two to four replicates were applied for each treatment in a randomised block test design.
(§2) 22., E=X+Y−(X*Y/100), where • X=average percent phytotoxicity of herbicide A when applied at a certain rate • Y=average percent phytotoxicity using herbicide B when applied at a certain rate • E=the expected effect of the mixture of herbicides A and B as calculated from the Colby formula.

[2] = tested on: Ipomoea hederacea (IPOHE); assay: Glasshouse post-emergence phytotoxicity test, Ipomoea hederacea (IPOHE)
Description: as §1, §2

[3] = tested on: Chenopodium album (CHEAL); assay: Glasshouse post-emergence phytotoxicity test, Chenopodium album (CHEAL)
Description: as §1, §2

Lolium perenne (LOLPE) = assay: Glasshouse post-emergence phytotoxicity test, Lolium perenne (LOLPE)
Description: as §1, §2

[4] = tested on: Amaranthus retroflexus (AMARE); assay: Glasshouse post-emergence phytotoxicity test, Amaranthus retroflexus (AMARE)
Description: as §1, §2

[5] = tested on: Alopecurus myosuroides (ALOMY); assay: Glasshouse post-emergence phytotoxicity test, Alopecurus myosuroides (ALOMY)
Description: as §1, §2

[6] = tested on: Echinochloa crus-galli (ECHCG); assay: Glasshouse post-emergence phytotoxicity test, Echinochloa crus-galli (ECHCG)
Description: as §1, with “Where active ingredients were applied as mixtures, aqueous spray solutions were prepared as above, containing both active ingredients. The test plants were then grown under controlled conditions in a glasshouse (at 24/16° C., day/night; 14 hours light; 65% humidity) and watered twice daily.” left out, “Two to four replicates were applied for each treatment in a randomised block test design.” left out
as §2

SMILES	Observed percentage phytotoxicity ([1]; rate 0.313 g/ha) [%]	Observed percentage phytotoxicity ([2]; rate 0.313 g/ha) [%]	Observed percentage phytotoxicity ([3]; rate 0.156 g/ha) [%]	Observed percentage phytotoxicity ([3]; rate 0.313 g/ha) [%]	Observed percentage phytotoxicity (Lolium perenne (LOLPE); rate 0.156 g/ha) [%]	Observed percentage phytotoxicity (Lolium perenne (LOLPE); rate 0.313 g/ha) [%]	Observed percentage phytotoxicity ([4]; rate 0.078 g/ha) [%]	Observed percentage phytotoxicity ([1]; rate 0.156 g/ha) [%]	Observed percentage phytotoxicity ([5]; rate 0.039 g/ha) [%]	further results
COC(=O)CCNC(=O)C(C)Sc1cc(-n2c(=O)cc(C(F)(F)F)n(C)c2=O)c(F)cc1Cl (stereo not drawn) [B-II]	8	40	18	18	5	3	30			Observed percentage phytotoxicity ([2]; rate 0.156 g/ha): 18%; Observed percentage phytotoxicity ([3]; rate 0.078 g/ha): 15%
c1cc[n+]2c(c1)-c1cccc[n+]1CC2 [B-III]										Observed percentage phytotoxicity ([2]; rate 7.5 g/ha): 5%; Observed percentage phytotoxicity ([3]; rate 15 g/ha): 15%; Observed percentage phytotoxicity ([4]; rate 3.75 g/ha): 8%
COC(=O)[C@@H](C)O/N=C/c1cc(-n2c(=O)cc(C(F)(F)F)n(C)c2=O)c(F)cc1Cl [A]	9	68	24	31	0	5	39	3	0	Observed percentage phytotoxicity ([5]; rate 0.313 g/ha): 3%; Observed percentage phytotoxicity ([2]; rate 0.078 g/ha): 20%; Observed percentage phytotoxicity ([6]; rate 0.313 g/ha): 1%; Observed percentage phytotoxicity ([3]; rate 0.625 g/ha): 33%; Observed percentage phytotoxicity (Lolium perenne (LOLPE); rate 0.078 g/ha): 3%; Observed percentage phytotoxicity ([4]; rate 0.156 g/ha): 68%
C=CCOC(=O)C(C)(C)OC(=O)c1cc(-n2c(=O)cc(C(F)(F)F)n(C)c2=O)ccc1Cl [B-I]	10		20	40		5	33	5	0	Observed percentage phytotoxicity ([1]; rate 0.625 g/ha): 15%; Observed percentage phytotoxicity ([5]; rate 0.625 g/ha): 8%; Observed percentage phytotoxicity ([6]; rate 0.625 g/ha): 5%; Observed percentage phytotoxicity (Lolium perenne (LOLPE); rate 0.039 g/ha): 0%; Observed percentage phytotoxicity (Lolium perenne (LOLPE); rate 0.625 g/ha): 5%

Reference: patent US20260182572A1, “HERBICIDAL COMPOSITIONS” (SYNGENTA CROP PROTECTION AG, priority 2022, published 2026)
